Molecules are shown by their SMILES. “And” between values parts separate entries of the source, which are not always exact repeats. Equal values may be shown once. Read-outs that look alike come from different tables or passages of the source.

Experiment [1] has as its system Cholesterol Biosynthesis. The experiment can be described thus: Test B. In Vitro Cell Culture Cholesterol Biosynthesis Screen (Fu5AH rat hepatoma cell line). The format is cell-based. Conditions: Fu5AH rat hepatoma cells, [14C]acetate, 3 hours; for inhibition at 10 µM: concentration 10 μM; for inhibition at 1 µM: concentration 1 μM. The procedure: Test B. In Vitro Cell Culture Cholesterol Biosynthesis Screen
The cell culture is prepared as follows: Stock monolayer cultures of the Fu5AH rat hepatoma cell line (originally obtained from G. Rothblat; see Rothblat, Lipids 9, 526-535 (1974) are routinely maintained in Eagle's Minimum Essential Medium (EMEM) supplemented with 10% fetal bovine serum (FBS) in 75 cm^2. tissue culture flasks. For these studies, when the cultures reach confluence, they are removed by mild enzymatic treatment with 0.25% trypsin in Hanks' balanced salt solution (without calcium and magnesium). After centrifugation of the cell suspension and aspiration of the enzymatic solution, the cell pellet is resuspended in an appropriate volume of media for seeding into 60 mm. tissue culture dishes. The cultures are incubated at 37° C. in an atmosphere of high humidity and 5% carbon dioxide. When the cultures are confluent (approximately 5 days), they are ready for use. The culture media is aspirated from the dishes and replaced with 3 ml. of EMEM supplemented with 5 mg./ml. of delipidized serum protein (DLSP) prepared by the method of Rothblat et al., In Vitro 12, 554-557 (1976). […] Enhanced 3-hydroxy-3-methylglutaryl Coenzyme A reductase (HMG-CoA reductase) activity is measurable in the cells in response to the lack of exogenous sterol. Following approximately 24 hours incubation at 37° C. in the DLSP supplemented media, the assay is initiated by the addition of 3μCi of [^14 C]acetate and the test substances solubilized in dimethylsulfoxide (DMSO) or distilled water. Solvent controls and compactin-treated controls are always prepared. Triplicate 60 mm. tissue culture dishes are run for each group. After 3 hours incubation at 37° C., the cultures are examined microscopically using an inverted phase contrast microscope. Notations are made of any morphological changes which may have occurred in the cultures. The media is aspirated and the cell layer is gently washed twice with 0.9% sodium chloride solution (saline). The cell layer is then harvested in 3 ml. of 0.9% saline by gentle scraping with a rubber policeman and transferred to a clean glass tube with Teflon lined cap. The dishes are rinsed with 3 ml. of 0.9 % saline and rescraped, and the cells are combined with the first harvest. The tubes are centrifuged at 1500 r.p.m. for 10 minutes in an IEC PR-J centrifuge, and the supernatant is aspirated.
The cells are then extracted as follows: One ml. of 100% ethanol is added to the cell pellet followed by sonication for 10 seconds with a "LO" setting of 50 on a Bronwell Biosonik IV. One hundred μL. are taken for protein determination. One ml. of 15% potassium hydroxide (KOH) is added, and the samples are thoroughly vortexed. Saponification is accomplished by heating the ethanol-KOH treated samples at 60° C. for 60 minutes in a water bath. Following dilution of the samples with 2 ml. of distilled water, they are extracted three times with 7 ml. of petroleum ether. The petroleum ether extracts are then washed three times with 2 ml. of distilled water and finally taken to dryness under a stream of nitrogen.
The obtained samples are then analyzed by thin layer chromatography (TLC) as follows: Residues from the petroleum ether extraction are taken up in a small volume of hexane and spotted on silica gel 60 TLC plates (E. Merck). Development of the plates is carried out in a 150 parts by volume hexane: 50 parts by volume diethyl ether: 5 parts by volume glacial acetic acid solvent system using a three phase development procedure. Visualization is accomplished in an iodine vapor chamber. The plates are divided into five sections such that each section contains the molecules having the following approximate Rf values: section 1-0-0.4, section 2-0.4-0.55, section 3-0.55-0.7, section 4-0.7-0.9 and section 5-0.9-1.0. Section 2 contains the non-saponifiable sterols. The five sections of the TLC plates are scraped into scintillation vials. […]

Experiment [2] addresses T1, HMG-CoA reductase (Rattus norvegicus, UniProt P51639).
T1 construct: the microsomes are the source of the HMG-CoA reductase enzyme; from tissue; host or cells: liver microsomes, male Sprague-Dawley rats
T1 sequence (P51639 1-887): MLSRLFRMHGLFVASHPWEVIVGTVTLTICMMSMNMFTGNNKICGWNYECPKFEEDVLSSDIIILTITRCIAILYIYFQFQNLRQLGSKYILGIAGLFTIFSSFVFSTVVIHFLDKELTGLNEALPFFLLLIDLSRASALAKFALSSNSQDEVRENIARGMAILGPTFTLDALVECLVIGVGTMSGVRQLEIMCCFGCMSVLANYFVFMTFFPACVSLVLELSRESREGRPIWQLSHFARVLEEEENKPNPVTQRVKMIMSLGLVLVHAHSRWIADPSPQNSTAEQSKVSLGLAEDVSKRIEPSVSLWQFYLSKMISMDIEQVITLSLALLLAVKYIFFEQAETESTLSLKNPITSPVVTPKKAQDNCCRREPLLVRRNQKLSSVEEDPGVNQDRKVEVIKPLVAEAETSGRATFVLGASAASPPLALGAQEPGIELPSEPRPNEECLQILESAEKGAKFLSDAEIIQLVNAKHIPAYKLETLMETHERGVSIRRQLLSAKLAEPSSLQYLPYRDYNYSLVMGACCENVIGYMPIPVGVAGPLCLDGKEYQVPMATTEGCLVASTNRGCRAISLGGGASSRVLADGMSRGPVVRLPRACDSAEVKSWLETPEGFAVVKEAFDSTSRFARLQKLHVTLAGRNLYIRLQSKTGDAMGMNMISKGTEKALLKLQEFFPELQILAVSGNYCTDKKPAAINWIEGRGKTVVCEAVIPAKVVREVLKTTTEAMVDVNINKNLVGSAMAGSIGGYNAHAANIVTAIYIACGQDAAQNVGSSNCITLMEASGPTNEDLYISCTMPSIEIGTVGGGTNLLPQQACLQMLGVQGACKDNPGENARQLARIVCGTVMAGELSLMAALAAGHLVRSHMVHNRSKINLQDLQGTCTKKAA
The experiment can be described thus: Test A. In Vitro Microsomal Assay of HMG-CoA Reductase Inhibition. The format is biochemical. The following applies: saponified products M=Na, unsaponified products tested in DMA. The method, then: Test A. In Vitro Microsomal Assay of HMG-CoA Reductase Inhibition
200 μl. aliquots (1.08-1.50 mg./ml.) of rat liver microsomal suspensions, freshly prepared from male Sprague-Dawley rats (150-225 g. body weight), in Buffer A with 10 mmol. dithiothreitol are incubated with 10 μl. test substance dissolved in dimethylacetamide and assayed for HMG-CoA reductase activity as described by Ackerman et al., J. Lipid Res. 18,408-413 (1977). In the assay the microsomes are the source of the HMG-CoA reductase enzyme which catalyzes the reduction of HMG-CoA to mevalonate. The assay employs a chloroform extraction to separate the product, [^14 C]mevalonolactone, formed by the HMG-CoA reductase reaction from the subsubstrate, [^14 C]HMG-CoA. [^3 H]mevalonolactone is added as an internal reference. Inhibition of HMG-CoA reductase is calculated from the decrease in specific activity [^14 C/^3 H]mevalonate) of test groups compared to controls.
IC50 is the concentration of the test substance in the assay system

In experiment [3] the test system is Cholesterol Biosynthesis. The experiment can be described thus: Test C: In Vivo Cholesterol Biosynthesis Inhibition Tests. The following applies: for ED50: Rattus norvegicus. Also noted: species or system male Wistar Royal Hart rats. The method, then:
Test C: In Vivo Cholesterol Biosynthesis Inhibition Tests: In vivo studies utilize male Wistar Royal Hart rats weighing 150±20 g. which have been kept for 7-10 days on an altered light cycle (6:30 A.M.-6:30 P.M. dark) housed two per cage and fed powdered Purina Rat Chow and water ad libitum. Three hours before the diurnal maximum of cholesterol synthesis at mid-dark, the rats are administered the test substances dissolved or as a suspension in 0.5% carboxymethylcellulose in a volume of 1 ml./100 g. body weight. Controls receive vehicle alone. One hour after receiving the test substance, the rats are injected intraperitoneally with about 25 μCi/100 g. body weight of sodium [1-^14 C]acetate 1-3 mCi/mmol. Two hours after mid-dark, blood samples are obtained under sodium hexobarbitol anesthesia and the serum separated by centrifugation.
Serum samples are saponified and neutralized, and the 3β-hydroxy sterols are precipitated with digitonin basically as described by Sperry et al., J. Biol. Chem. 187,97 (1950). The [^14 C]digitonides are then counted by liquid scintillation spectrometry. After correcting for efficiencies, the results are calculated in nCi (nanocuries) of sterol formed per 100 ml. of serum. Inhibition of sterol synthesis is calculated from the reduction in the nCi of sterols formed from test groups compared to controls.

As usually defined, the inhibition is the relative decrease from the control value, in per cent. In experiment [1], `C[Si](c1ccccc1)(c1ccccc1)c1ccccc1/C=C/[C@@H]1C[C@@H](O)CC(=O)O1` (relative stereo) [Example 3 (Ia"'), 4-Hydroxy-6{2-[2-(methyldiphenylsilyl)phenyl]ethenyl}-2H-tetrahydropyran-2-one(trans,trans)] yielded an inhibition at 10 µM of 74%. With `C[Si](C)(c1ccccc1)c1ccccc1/C=C/[C@@H]1C[C@@H](O)CC(=O)O1` (relative stereo) [Example 4 (Ia"'), 4-Hydroxy-6{2-[2-(dimethylphenylsilyl)phenyl]ethenyl}-2H-tetrahydropyran-2-one], testing at 10 µM in experiment [1] gave an inhibition of 56%.

One may read the IC50 as the concentration that inhibits the measured activity by half. In the case of `CCOC(=O)C[C@H](O)C[C@H](O)/C=C/c1c(C)cc(C)cc1[Si](C)(C)c1ccccc1` (relative stereo) [Example 5a (Ia')], 1 µM produced 47% inhibition in experiment [1]. In addition, the IC50 in experiment [2] (IC50, rat liver microsomes) amounted to 14.7 µM. In the case of `CCOC(=O)C[C@H](O)C[C@H](O)/C=C/c1c(C)cc(OC)cc1[Si](C)(C)c1ccccc1` (relative stereo) [Example 5e (Ia')], the inhibition at 10 µM in experiment [1] stood at 28%. For the compound `Cc1cc(C)c(/C=C/[C@@H]2C[C@@H](O)CC(=O)O2)c([Si](C)(C)c2ccccc2)c1` (relative stereo) [Example 6a (Ia"')], the inhibition at 10 µM in experiment [1] was 73%. As to `Cc1cc(C)c(/C=C/[C@@H](O)C[C@@H](O)CC(=O)O)c([Si](C)(C)c2ccccc2)c1` (relative stereo) [Example 6a (Ia^s)], the IC50 in experiment [2] (IC50, rat liver microsomes) stood at 6.9 µM. Turning to `Cc1cc(Cl)cc([Si](C)(C)c2ccccc2)c1/C=C/[C@@H]1C[C@@H](O)CC(=O)O1` (relative stereo) [Example 6b (Ia"')], the IC50 in experiment [2] (IC50, rat liver microsomes) was 16.4 µM. On to `Cc1cc(Cl)cc([Si](C)(C)c2ccccc2)c1/C=C/[C@@H](O)C[C@@H](O)CC(=O)O` (relative stereo) [Example 6b (Ia^s)], for which, in experiment [2] (IC50, rat liver microsomes), the concentration for half-maximal inhibition (IC50) was 17.1 µM and 14.2 µM. A word on the % Inhibition: it is the percentage by which the read-out fell short of the control. A low value points to a response near the control. With `Cc1cccc([Si](C)(C)c2ccccc2)c1/C=C/[C@@H]1C[C@@H](O)CC(=O)O1` (relative stereo) [Example 6g (Ia"')], the “% Inhibition” value in experiment [3] (dose 48 mg/kg, serum sterol synthesis, rats) is on record as 57%. The compound also gave an inhibition at 10 µM in experiment [1] of 65%. The same compound came in with an IC50 in experiment [2] (IC50, rat liver microsomes) of 27.2 µM. `Cc1cccc([Si](C)(C)c2ccccc2)c1/C=C/[C@@H](O)C[C@@H](O)CC(=O)O` (relative stereo) [Example 6g (Ia^s)] registered an IC50 in experiment [2] (IC50, rat liver microsomes) of 4.3 µM.

Consider `CCOC(=O)C[C@H](O)C[C@H](O)/C=C/c1c(C)cc(Cl)cc1[Si](C)(c1ccccc1)c1ccccc1` (relative stereo) [Example 7a (Ia')], for which, in experiment [1], the inhibition at 10 µM was 17%. The compound `Cc1cc(Cl)cc([Si](C)(c2ccccc2)c2ccccc2)c1/C=C/[C@@H]1C[C@@H](O)CC(=O)O1` (relative stereo) [Example 8a (Ia"')] displayed an inhibition at 10 µM in experiment [1] of 33%. For the compound `Cc1cccc([Si](C)(c2ccccc2)c2ccccc2)c1/C=C/[C@@H](O)C[C@@H](O)CC(=O)O` (relative stereo) [Example 8b (Ia^s)], in experiment [2] (IC50, rat liver microsomes), half-maximal inhibition (IC50) required 52.4 µM. With `CCOC(=O)C[C@H](O)C[C@H](O)/C=C/c1c(C)ccc(C)c1[Si](C)(C)c1ccccc1` (relative stereo) [Example 9 (Ib'), Ethyl 7-[3,6-dimethyl-(2-dimethylphenylsilyl)-phenyl]-3,5-dihydroxy hept-6-enoate, (erythro,trans)], in experiment [1], the inhibition at 1 µM is 19%. This compound showed an IC50 in experiment [2] (IC50, rat liver microsomes) of 28.1 µM.

Turning to `Cc1ccc(C)c([Si](C)(C)c2ccccc2)c1/C=C/[C@@H]1C[C@@H](O)CC(=O)O1` (relative stereo) [Example 10 (Ib"'), 6-{2-[3,6-dimethyl-2-(dimethylphenylsilyl)phenyl]ethenyl}4-hydroxy-tetrahydro-2H-pyran-2-one (trans,trans)], the inhibition at 10 µM in experiment [1] stood at 63%. Also, the IC50 in experiment [2] (IC50, rat liver microsomes) came to 24.4 µM. Regarding `Cc1ccc(C)c([Si](C)(C)c2ccccc2)c1/C=C/[C@@H](O)C[C@@H](O)CC(=O)O` (relative stereo) [Example 10 (Ib^s)], in experiment [2] (IC50, rat liver microsomes), the midpoint of inhibition, the IC50, lay at 9 µM. As usually defined, the ED50 is the dose at which the effect has come halfway, by size or by number of responders. For `CC[C@H](C)C(=O)O[C@H]1C[C@@H](C)C=C2C=C[C@H](C)[C@H](CC[C@@H]3C[C@@H](O)CC(=O)O3)[C@H]21` [Mevinolin], the ED50 in experiment [3] stood at 0.41 mg/kg. Turning to `CC[C@H](C)C(=O)O[C@H]1CCC=C2C=C[C@H](C)[C@H](CC[C@@H]3C[C@@H](O)CC(=O)O3)[C@H]21` [compactin, reference compound], the ED50 in experiment [3] (standard, serum sterol synthesis, rats, read-out: ED50) came to 3.5 mg/kg. In addition, the inhibition at 0.08 µM in experiment [1] (concentration 0.08 μM) was found to be 50%. Moreover, the concentration for half-maximal inhibition (IC50) in experiment [2] (rat liver microsomes, read-out: IC50) is 0.8 µM.

Source of the values: US4588715A, “Heptenoic acid derivatives” (Sandoz, Inc., priority 1984, dated 1986).
